Measured values reported in US7410975B2, “Small molecule toll-like receptor (TLR) antagonists” (Coley Pharmaceutical Group, Inc., priority 2003, dated 2008).
Where a name gives a salt, the structure may show the parent alone.

Biological target: T1, human TLR7 (hTLR7) (Homo sapiens, UniProt Q9NYK1)
T1 construct: expressed in transfected cells
T1 sequence (Q9NYK1 27-1049): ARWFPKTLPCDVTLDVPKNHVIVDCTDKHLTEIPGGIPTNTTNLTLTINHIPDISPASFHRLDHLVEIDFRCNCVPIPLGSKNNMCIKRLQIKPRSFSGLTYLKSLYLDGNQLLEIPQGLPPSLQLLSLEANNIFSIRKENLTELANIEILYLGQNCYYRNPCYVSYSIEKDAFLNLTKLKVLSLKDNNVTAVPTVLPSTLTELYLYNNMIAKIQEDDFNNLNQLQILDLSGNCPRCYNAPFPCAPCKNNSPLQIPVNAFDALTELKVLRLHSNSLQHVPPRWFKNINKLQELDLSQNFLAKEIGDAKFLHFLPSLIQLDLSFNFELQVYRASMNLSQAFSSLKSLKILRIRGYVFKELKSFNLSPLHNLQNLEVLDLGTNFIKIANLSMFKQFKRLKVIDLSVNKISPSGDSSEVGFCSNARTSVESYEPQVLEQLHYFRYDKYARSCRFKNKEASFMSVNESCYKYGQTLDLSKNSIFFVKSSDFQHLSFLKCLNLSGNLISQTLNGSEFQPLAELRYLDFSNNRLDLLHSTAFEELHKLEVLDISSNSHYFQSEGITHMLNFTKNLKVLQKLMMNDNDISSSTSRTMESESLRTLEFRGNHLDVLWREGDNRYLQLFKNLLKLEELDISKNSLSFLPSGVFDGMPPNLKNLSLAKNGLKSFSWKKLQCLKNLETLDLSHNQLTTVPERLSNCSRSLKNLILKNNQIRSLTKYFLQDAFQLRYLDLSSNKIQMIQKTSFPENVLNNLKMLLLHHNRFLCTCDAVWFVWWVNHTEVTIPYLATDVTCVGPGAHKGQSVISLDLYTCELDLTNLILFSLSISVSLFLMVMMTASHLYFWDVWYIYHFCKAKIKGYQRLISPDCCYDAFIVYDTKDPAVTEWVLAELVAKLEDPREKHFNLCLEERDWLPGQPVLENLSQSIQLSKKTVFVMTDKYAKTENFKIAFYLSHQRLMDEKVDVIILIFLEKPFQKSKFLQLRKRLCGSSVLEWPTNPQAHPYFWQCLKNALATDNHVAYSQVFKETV
Assay: Antagonist screen, hTLR7-NFκB-293 cells, NF-κB-luciferase reporter, with EC50 of R848
Type: cell-based
Details: compound at 0.5, 5, 50 μg/ml; EC50 concentration of R848; 16 h; NF-κB-luciferase
Procedure: The method is described in greater detail as follows. The cells for each individual cell clone (hTLR3-NFκB-293, hTLR7-NFκB-293, hTLR8-NFκB-293 and hTLR9-NFκB-293) were counted and seeded one day before the stimulation at 1.5×10^4 cells per well in 96-well cell culture plates. To become adherent the cells were incubated after seeding overnight at 37° C. in 5% CO2 humidified air.
The screen for each compound was performed at the same time for all of the receptors TLR3, TLR7, TLR8 and TLR9. Up to fifteen test compounds, each assayed in duplicate at each of three different final concentrations (0.5 μg/ml, 5 μg/ml, and 50 μg/ml), were used for 16 h cell stimulation on a single multiwell culture plate. A 4× final concentration master plate was created to prepare the different test compounds before they were added to the cells.
Controls were added as duplicates individually for each cell clone on the cell culture plate. Positive controls were used as follows (final concentrations): 50 μg/ml poly(I:C) for hTLR3-NFκB-293; 8 μM resiquimod (R848) for hTLR7-NFκB-293; 30 μM R848 for hTLR8-NFκB-293; and 2.5 μM CpG-ODN 2006 for hTLR9-NFκB-293. Media alone was used as negative control. After addition of controls and small molecules, the cell clones were additionally stimulated with the EC50 concentration of the appropriate receptor-specific ligand.
The mean value of wells H2 and H5 (each with cells and EC50 concentration of the appropriate receptor-specific ligand) divided by the mean of wells H3 and H6 (each with cells alone) yielded the baseline response (i.e., fold induction of luciferase activity) to EC50 concentration of the appropriate receptor-specific ligand.
After 16 h stimulation the supernatant was removed and the cells treated with lysis buffer and stored at −80° C. before measuring.
For each screen result a graphical documentation was performed.
The baseline result (measured with addition of the EC50 concentration of the receptor-specific ligand) for each cell culture plate was measured as described above. Antagonistic effects were measured by down regulation compared to the baseline. Antagonists were scored as follows: • 13: compounds for which there was clear down regulation at 0.5 μg/ml, 5 μg/ml, and 50 μg/ml; • 12: compounds for which there was clear down regulation at 5 μg/ml and 50 μg/ml; • 11: compounds for which there was clear down regulation only at 50 μg/ml; • —: compounds for which there was no clear down regulation even at 50 μg/ml. Agonists
Results were expressed as fold induction over baseline luciferase activity measured in the absence of R848. […] Additional screening was performed in like manner using additional small molecules selected from another library or specifically prepared for this purpose. Scoring is reported as above but as applied to TLR7.

SMILES | hTLR7 (inhibitory effect, antagonist score)
CC(=O)c1ccc2c(c1)N(CCCN(C)C)c1ccccc1S2.O=C(O)/C=C\C(=O)O [compound 576, Acetopromazinemaleate salt] | — (compounds for which there was no clear down regulation even at 50 μg/ml)
COC(=O)C1=CO[C@@H](C)[C@@H]2CN3CCc4c([nH]c5ccccc45)[C@@H]3C[C@H]12 [compound 593, Tetrahydroalstonine] | 11 (compounds for which there was clear down regulation only at 50 μg/ml)
CC[C@]12CCCN3CCc4c(n(c5ccccc45)C(=O)C1)[C@@H]32 [compound 607, Eburnamonine] | 11 (compounds for which there was clear down regulation only at 50 μg/ml)
Cc1nccc2c1[nH]c1cc(O)ccc12.Cl [compound 612, Harmol hydrochloride monohydrate] | 11 (compounds for which there was clear down regulation only at 50 μg/ml)
COc1ccc2c(c1)[nH]c1c(C)nccc12.Cl [compound 613, harmine hydrochloride] | 13 (compounds for which there was clear down regulation at 0.5 μg/ml, 5 μg/ml, and 50 μg/ml)
Cc1c2ccncc2c(C)c2c1[nH]c1ccccc12 [compound 614, Ellipticine] | 13 (compounds for which there was clear down regulation at 0.5 μg/ml, 5 μg/ml, and 50 μg/ml)
Cc1nccc2c1[nH]c1ccccc12 [compound 620, Harmane hydrochloride] | — (compounds for which there was no clear down regulation even at 50 μg/ml)
COc1ccc2[nH]c3c(c2c1)CCN=C3C [compound 621, Methoxy-6-harmalan] | — (compounds for which there was no clear down regulation even at 50 μg/ml)
CC[C@]12CCCN3CCc4c(n(c5ccccc45)[C@](O)(C(=O)OC)C1)[C@@H]32 [compound 636, Epivincamine] | — (compounds for which there was no clear down regulation even at 50 μg/ml)
Cl.Cl.c1ccc2c3c([nH]c2c1)C1C2CCC(C4CCCNC42)N1CC3 (centres unmarked) [compound 685, Nitrarine dihydorchloride] | — (compounds for which there was no clear down regulation even at 50 μg/ml)
CN(C)CCCN1c2ccccc2Sc2ccccc21.Cl [compound 693, Promazinehydrochloride] | 12 (compounds for which there was clear down regulation at 5 μg/ml and 50 μg/ml)
CN1CCC(OC(c2ccccc2)c2ccccc2)CC1.Cl [compound 707, Diphenylpyralinehydrochloride] | 11 (compounds for which there was clear down regulation only at 50 μg/ml)
CCCC(C(=O)OCCN(CC)CC)(c1ccccc1)c1ccccc1.Cl [compound 778, Proadifen hydrochloride] | 11 (compounds for which there was clear down regulation only at 50 μg/ml)
Cl.Clc1ccc(C(OCCN2CCCCC2)c2ccccc2)cc1 (centres unmarked) [compound 793, Cloperastinehydrochloride] | 11 (compounds for which there was clear down regulation only at 50 μg/ml)
COc1ccc2c(c1)N(CC(C)CN(C)C)c1ccccc1S2.O=C(O)/C=C\C(=O)O (centres unmarked) [compound 797, Methotrimeprazinemaleat salt] | — (compounds for which there was no clear down regulation even at 50 μg/ml)
CS(=O)(=O)O.OC(CCN1CCCCC1)(c1ccccc1)c1ccccc1 [compound 799, Pridinolmethanesulfonate salt] | — (compounds for which there was no clear down regulation even at 50 μg/ml)
C[N+]12CCC(CC1)C(OC(=O)C(O)(c1ccccc1)c1ccccc1)C2.[Br-] (centres unmarked) [compound 822, Clidinium bromide] | — (compounds for which there was no clear down regulation even at 50 μg/ml)
Clc1ccc(C(c2ccccc2Cl)C(Cl)Cl)cc1 (centres unmarked) [compound 833, Mitotane] | 11 (compounds for which there was clear down regulation only at 50 μg/ml)
CCN(CC)C(C)CN1c2ccccc2Sc2ccccc21.Cl (centres unmarked) [compound 840, Ethopropazinehydrochloride] | — (compounds for which there was no clear down regulation even at 50 μg/ml)
CC(CN(C)C)CN1c2ccccc2Sc2ccccc21.CC(CN(C)C)CN1c2ccccc2Sc2ccccc21.O=C(O)C(O)C(O)C(=O)O (centres unmarked) [compound 842, Trimeprazine tartrate] | — (compounds for which there was no clear down regulation even at 50 μg/ml)
COC(=O)[C@H]1[C@H]2C[C@@H]3c4[nH]c5cc(OC)ccc5c4CCN3C[C@H]2C[C@@H](OC(=O)c2cc(OC)c(OC)c(OC)c2)[C@@H]1OC [compound 875, Reserpine] | — (compounds for which there was no clear down regulation even at 50 μg/ml)
OCc1cc2c(cn1)[nH]c1ccccc12 [compound 878, 3-hydroxymethyl-beta-carboline] | — (compounds for which there was no clear down regulation even at 50 μg/ml)
O=C(O)c1cc(C(c2ccc(O)c(C(=O)O)c2)C(Cl)(Cl)Cl)ccc1O [compound 884] | 11 (compounds for which there was clear down regulation only at 50 μg/ml)
CN(CCO)C(=O)c1cccc2c1-c1ccccc1C2=O [compound 890] | 11 (compounds for which there was clear down regulation only at 50 μg/ml)
COC(=O)c1cccc2c1-c1ccccc1/C2=N/O [compound 904] | 12 (compounds for which there was clear down regulation at 5 μg/ml and 50 μg/ml)
O=C(O)c1ccccc1NC1CC=CC2=C1C(=O)c1ccccc1C2=O (centres unmarked) [compound 917] | 11 (compounds for which there was clear down regulation only at 50 μg/ml)
O=C(O)c1cccc2c1/C(=N/O)c1ccccc1-2 [compound 918] | 11 (compounds for which there was clear down regulation only at 50 μg/ml)
CCCCOC(=O)c1cc([N+](=O)[O-])cc2c1-c1cc(CO)c([NH+]([O-])O)cc1C2=C(C#N)C#N (centres unmarked) [compound 939] | 11 (compounds for which there was clear down regulation only at 50 μg/ml)
O=C(O)c1cccc2c1-c1ccccc1/C2=N/Nc1ccc([N+](=O)[O-])cc1[N+](=O)[O-] [compound 944] | 11 (compounds for which there was clear down regulation only at 50 μg/ml)
